A short description of data set [1]: Cytotoxicity against human CEM-SS cells after 5 days by MTT assay. It is filed as cell-based. A general note: Tetrazolium dyes change colour on reduction, which living cells bring about.
The nature of data set [2]: Therapeutic index, ratio of CC50 for human CEM-SS cells to IC50 for HIV1 LAI infected in human CEM-SS cells. It is filed as cell-based. Conditions: CEM-SS cells (uninfected and infected with HIV1 LAI), read-out: Ratio CC50/IC50.
Data set [3] deals with Human immunodeficiency virus 1. As to the kind of experiment: Antiviral activity against HIV1 LAI infected in human CEM-SS cells assessed as inhibition of viral replication after 5 days by MTT assay. It is filed as functional, organism-based. Conditions: Human immunodeficiency virus 1, LAI, 120 h.

The CC50 is the concentration that lowers cell viability or growth by half. Low readings indicate greater toxicity to the cells, high ones lower toxicity to the cells. A word on the IC50: it is the concentration that inhibits the measured activity by half.

Turning to `CCCCCCCCCC(C(=O)NCCc1ccc(OP(=S)(Oc2ccc(CCNC(=O)C(CCCCCCCCC)P(=O)(O)O)cc2)N(C)/N=C/c2ccc(OP3(Oc4ccc(/C=N/N(C)P(=S)(Oc5ccc(CCNC(=O)C(CCCCCCCCC)P(=O)(O)O)cc5)Oc5ccc(CCNC(=O)C(CCCCCCCCC)P(=O)(O)O)cc5)cc4)=NP(Oc4ccc(/C=N/N(C)P(=S)(Oc5ccc(CCNC(=O)C(CCCCCCCCC)P(=O)(O)O)cc5)Oc5ccc(CCNC(=O)C(CCCCCCCCC)P(=O)(O)O)cc5)cc4)(Oc4ccc(/C=N/N(C)P(=S)(Oc5ccc(CCNC(=O)C(CCCCCCCCC)P(=O)(O)O)cc5)Oc5ccc(CCNC(=O)C(CCCCCCCCC)P(=O)(O)O)cc5)cc4)=NP(Oc4ccc(/C=N/N(C)P(=S)(Oc5ccc(CCNC(=O)C(CCCCCCCCC)P(=O)(O)O)cc5)Oc5ccc(CCNC(=O)C(CCCCCCCCC)P(=O)(O)O)cc5)cc4)(Oc4ccc(/C=N/N(C)P(=S)(Oc5ccc(CCNC(=O)C(CCCCCCCCC)P(=O)(O)O)cc5)Oc5ccc(CCNC(=O)C(CCCCCCCCC)P(=O)(O)O)cc5)cc4)=N3)cc2)cc1)P(=O)(O)O.CCCCCCCCCCCCCCCCNOC(CO)C(O)C(OC1OC(CO)C(O)C(O)C1O)C(O)CO.CCCCCCCCCCCCCCCCNOC(CO)C(O)C(OC1OC(CO)C(O)C(O)C1O)C(O)CO.CCCCCCCCCCCCCCCCNOC(CO)C(O)C(OC1OC(CO)C(O)C(O)C1O)C(O)CO.CCCCCCCCCCCCCCCCNOC(CO)C(O)C(OC1OC(CO)C(O)C(O)C1O)C(O)CO.CCCCCCCCCCCCCCCCNOC(CO)C(O)C(OC1OC(CO)C(O)C(O)C1O)C(O)CO.CCCCCCCCCCCCCCCCNOC(CO)C(O)C(OC1OC(CO)C(O)C(O)C1O)C(O)CO` (centres undefined), the 50% cytotoxic concentration (CC50) at 120 h in data set [1] was 6100 nM. Further, the selectivity ratio in data set [2] was found to be 19.7. Also, the IC50 in data set [3] was 310 nM.
As for `CCCCCCCCCCCCCCCCNOC(CO)C(O)C(OC1OC(CO)C(O)C(O)C1O)C(O)CO.CCCCCCCCCCCCCCCCNOC(CO)C(O)C(OC1OC(CO)C(O)C(O)C1O)C(O)CO.CCCCCCCCCCCCCCCCNOC(CO)C(O)C(OC1OC(CO)C(O)C(O)C1O)C(O)CO.CCCCCCCCCCCCCCCCNOC(CO)C(O)C(OC1OC(CO)C(O)C(O)C1O)C(O)CO.CCCCCCCCCCCCCCCCNOC(CO)C(O)C(OC1OC(CO)C(O)C(O)C1O)C(O)CO.CCCCCCCCCCCCCCCCNOC(CO)C(O)C(OC1OC(CO)C(O)C(O)C1O)C(O)CO.CN(/N=C/c1ccc(OP2(Oc3ccc(/C=N/N(C)P(=S)(Oc4ccc(/C=C/P(=O)(O)O)cc4)Oc4ccc(/C=C/P(=O)(O)O)cc4)cc3)=NP(Oc3ccc(/C=N/N(C)P(=S)(Oc4ccc(/C=C/P(=O)(O)O)cc4)Oc4ccc(/C=C/P(=O)(O)O)cc4)cc3)(Oc3ccc(/C=N/N(C)P(=S)(Oc4ccc(/C=C/P(=O)(O)O)cc4)Oc4ccc(/C=C/P(=O)(O)O)cc4)cc3)=NP(Oc3ccc(/C=N/N(C)P(=S)(Oc4ccc(/C=C/P(=O)(O)O)cc4)Oc4ccc(/C=C/P(=O)(O)O)cc4)cc3)(Oc3ccc(/C=N/N(C)P(=S)(Oc4ccc(/C=C/P(=O)(O)O)cc4)Oc4ccc(/C=C/P(=O)(O)O)cc4)cc3)=N2)cc1)P(=S)(Oc1ccc(/C=C\P(=O)(O)O)cc1)Oc1ccc(/C=C/P(=O)(O)O)cc1` (centres undefined), the half-maximal cytotoxic concentration (CC50) at 120 h in data set [1] turned out to be 1600 nM. For the same molecule, in data set [2], the selectivity ratio was found to be 6.4. In data set [3], the concentration for half-maximal inhibition (IC50) was found to be 250 nM.
On the same counts, the results for `CCCCCCCCCCCCCCCCNOC(CO)C(O)C(OC1OC(CO)C(O)C(O)C1O)C(O)CO.CCCCCCCCCCCCCCCCNOC(CO)C(O)C(OC1OC(CO)C(O)C(O)C1O)C(O)CO.CCCCCCCCCCCCCCCCNOC(CO)C(O)C(OC1OC(CO)C(O)C(O)C1O)C(O)CO.CCCCCCCCCCCCCCCCNOC(CO)C(O)C(OC1OC(CO)C(O)C(O)C1O)C(O)CO.CCCCCCCCCCCCCCCCNOC(CO)C(O)C(OC1OC(CO)C(O)C(O)C1O)C(O)CO.CCCCCCCCCCCCCCCCNOC(CO)C(O)C(OC1OC(CO)C(O)C(O)C1O)C(O)CO.CN(/N=C/c1ccc(OP2(Oc3ccc(/C=N/N(C)P(=S)(Oc4ccc(C(O)P(=O)(O)O)cc4)Oc4ccc(C(O)P(=O)(O)O)cc4)cc3)=NP(Oc3ccc(/C=N/N(C)P(=S)(Oc4ccc(C(O)P(=O)(O)O)cc4)Oc4ccc(C(O)P(=O)(O)O)cc4)cc3)(Oc3ccc(/C=N/N(C)P(=S)(Oc4ccc(C(O)P(=O)(O)O)cc4)Oc4ccc(C(O)P(=O)(O)O)cc4)cc3)=NP(Oc3ccc(/C=N/N(C)P(=S)(Oc4ccc(C(O)P(=O)(O)O)cc4)Oc4ccc(C(O)P(=O)(O)O)cc4)cc3)(Oc3ccc(/C=N/N(C)P(=S)(Oc4ccc(C(O)P(=O)(O)O)cc4)Oc4ccc(C(O)P(=O)(O)O)cc4)cc3)=N2)cc1)P(=S)(Oc1ccc(C(O)P(=O)(O)O)cc1)Oc1ccc(C(O)P(=O)(O)O)cc1` (centres undefined) are 1200 nM, 4 and 210 nM.
